Values joined by “and” are separate entries in the source; they are usually repeats but may differ in a detail not shown here. Identical values can stand only once. Like-named read-outs stand apart in the source and are kept apart here.
Key:
human bronchial rings = experiment: Wire myograph bronchodilation of histamine pre-contracted human bronchial rings (Biopta)
Excerpt: Details of bronchodilator studies shown in Figure 5H, 6 and Supplementary Figure 40 are provided below as part of the end assay report on Study CUR011 by Lee Christie (Biopta). Donors with any of the following conditions were excluded from the study: asthma, COPD, emphysema, lung cancer, cystic fibrosis, pulmonary fibrosis, pulmonary hypertension, pneumonia. Donors were also excluded if they had smoked in the past 12 months. Non-transplantable lung tissue was acquired from organ donors post mortem. Any macroscopically diseased/necrotic tissue was rejected. […] Human airway rings were set up under isometric conditions on a wire myograph in order to examine the influence of the test articles on bronchodilation. In order to assess tissue viability, the airways were challenged with carbachol (10 μM) and then isoprenaline (10 μM) to assess their constriction and relaxation responses, respectively. […] Viable airways were pre-constricted with histamine (10 μM), then exposed to one of the following cumulative concentration response curves (CCRCs): positive control, vehicle (water, volume matched to positive control), test article, vehicle (DMSO concentration matched to test articles). At the end of each CCRC, theophylline (2.2 mM) was added to induce maximal relaxation of the tissue. […] Airways were re-tensioned to 1.0 – 1.5 g if the tension had dropped below 1.0 g during the first 30 min of equilibration. (b) Airways were exposed to carbachol (bath concentration 10 μM) in order to measure their contractile responses and then isoprenaline (10 μM) in order to assess their relaxation. Airways were washed out and allowed to return to baseline. (c) Airways were pre-constricted with histamine (10 μM) before conducting a CCRC to the test article, the positive control (isoprenaline), test article vehicle or positive control vehicle.

COLO205 cells = experiment: QPatch electrophysiology of endogenous calcium-activated chloride current in COLO205 cells; format: cell-based, human; settings: 170 nM free calcium
Excerpt: HEK293 cells stably expressing the TMEM16A (acd) variant were purchased from SB Drug Discovery. The HEK293 TMEM16A (abc) stable cell line was from ChanTest and COLO-205 cells were purchased from ATCC. The same standard buffers and recording conditions listed below were used for QPatch studies on all three cell lines.
Recording Solutions: were made weekly as below and stored at room temperature until used. It is recommended not to add ATP to internal solution until immediately before using on the QPatch. The external buffer (in mM) was 140 NaCl, 4 KCl, 2 CaCl2, 1 MgCl2, 10 HEPES, 10 Glucose, pH7.4, while the internal buffer (in mM) was 110 CsCl, 20 TEA-Cl, 5.374 CaCl2, 1.75 MgCl2, 10 EGTA, 10 HEPES, 4 Na2ATP, pH 7.2.
Once established in whole-cell configuration, cells were clamped to a holding potential (Vhold) of 0 mV on 48 well single hole patch plate. A standardized IV protocol was used to elicit ionic current through the TMEM16A chloride channel at 20 s intervals. Steady-state voltage pulses were from −100 mV to +100 mV in +20 mV steps for a duration of 500 ms. After each pulse the voltage was returned to −100 mV for 50 ms to obtain tail currents, and then returned to the holding potential of 0 mV until the beginning of the next sweep. Block of TMEM16A chloride current due to test article was measured at the +100 mV depolarization sweep of the third and final IV protocol run per concentration addition. This ensures a minimum of 60 s per concentration incubation before measuring current block. Currents were acquired at 10 kHz and filtered at 2 kHz, leak subtraction and Rseries were disabled. […]
A cumulative concentration response was measured where each cell is exposed to five concentrations of test article with a dilution factor of 1:5 (e.g., 0.048, 0.24, 1.2, 6, and 30 μM). Cells were recorded for ∼60 s per solution/compound addition. […] Recovery/washout was monitored for a final minute with a final external solution addition.
Peak outward current magnitude at 540 ms through 550 ms of the IV step was measured for each sweep at […]. […]

mouse tracheal rings = experiment: Bronchodilation of mouse tracheal rings at differing levels of carbachol pre-contraction; settings: EC95 level of carbachol, normalized to theophylline
Protocol: Standard procedures as listed above were used to prepare, mount and Wake-Up tracheal rings and the concentrations of carbachol providing EC25, EC50, EC75, or EC95 levels of contraction for each ring was determined as described above.

[1] = system: Wnt/β-catenin transcription; settings: cited from earlier work
[2] = Homo sapiens, 10 μM histamine, read-out: EC50 bronchodilating histamine precontracted human airways
[3] = histamine pre-contracted, 10 μM
[4] = ref Mook et al. (2015), read-out: Mook et al. Wnt/β-catenin TopFlash (IC50)

| SMILES | EC50 (human bronchial rings; [2]) [nM] | time to steady-state relaxation of human bronchial rings (human bronchial rings; [3]) | block of native chloride current in COLO205 cells (COLO205 cells) | relaxation of airway rings (mouse tracheal rings) | further results |
| --- | --- | --- | --- | --- | --- |
| CCc1oc2ccccc2c1C(=O)c1cc(Br)c(O)c(Br)c1 [Benzbromarone] | 5650 | 80 to 140 min | fully blocked | roughly 100% |  |
| CC(C)(C)C1CCc2c(sc(NC(=O)c3ccco3)c2C(=O)O)C1 (stereo not drawn) [CaCCinh-A01] |  |  | fully blocked |  |  |
| N#Cc1c(C(F)(F)F)cc(O)n2c1nc1ccccc12 [1PBC] |  |  | fully blocked |  |  |
| O=C(Nc1ccc(Cl)cc1)c1cc(Cl)ccc1O [Cpd 5] |  |  |  |  | IC50 [1, 4]: 1300 nM |
| O=C(Nc1ccc([N+](=O)[O-])cc1)c1cc(Cl)ccc1O [Cpd 2] |  |  |  |  | IC50 [1, 4]: 990 nM |
| O=C(Nc1ccc([N+](=O)[O-])cc1Cl)c1cc(Cl)ccc1O [Niclosamide] | 970 | ~50 min |  | roughly 100% | EC50 (human bronchial rings; 10 μM histamine, read-out: EC50 bronchodilating histamine precontracted human airways): 967 nM; time to steady-state relaxation of human bronchial rings (human bronchial rings; histamine pre-contracted, 1 μM): ~92 min; IC50 ([1]; TOPFlash reporter assay, ref Mook et al., 2015, read-out: IC50 inhibition of Wnt/β-catenin transcription): 340 nM |
| COc1cc([N+](=O)[O-])ccc1NC(=O)c1cc(Cl)c2ccccc2c1O [Cpd 4] | 3450 | 50 − 125 min |  | roughly 100% | EC50 (human bronchial rings; histamine pre-contracted, Donor 1 Ring 1, Donor 1 Ring 2, Donor 2 Ring 1, read-out: EC50 relaxation of human bronchial rings, individual rings): ~1750 nM and ~6300 nM and 3000 nM |

Reference: publication PMC6382696, “Drug Repurposing: The Anthelmintics Niclosamide and Nitazoxanide Are Potent TMEM16A Antagonists That Fully Bronchodilate Airways” (Frontiers in Pharmacology, 2019)
